By IC50 is commonly meant the midpoint of a concentration-inhibition curve.

This experiment deals with T1, BACE1 (Homo sapiens, UniProt P56817).
T1 construct: endogenous in cells; host or cells: HEK293 APP cells
T1 sequence (P56817 46-501): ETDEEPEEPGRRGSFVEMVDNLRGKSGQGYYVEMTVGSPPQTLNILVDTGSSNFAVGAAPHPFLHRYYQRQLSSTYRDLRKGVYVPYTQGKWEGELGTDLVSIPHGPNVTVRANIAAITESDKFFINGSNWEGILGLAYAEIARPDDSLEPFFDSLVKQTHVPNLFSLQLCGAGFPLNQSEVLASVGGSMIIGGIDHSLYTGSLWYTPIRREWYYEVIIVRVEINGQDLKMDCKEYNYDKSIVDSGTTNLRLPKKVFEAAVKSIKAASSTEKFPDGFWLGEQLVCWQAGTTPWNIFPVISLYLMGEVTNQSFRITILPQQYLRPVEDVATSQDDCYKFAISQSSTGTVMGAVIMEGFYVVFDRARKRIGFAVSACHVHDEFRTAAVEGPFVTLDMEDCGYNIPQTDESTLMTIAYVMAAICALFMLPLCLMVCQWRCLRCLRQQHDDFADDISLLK
Briefly: Cellular Aβ-lowering assay (Abeta 40 AlphaLISA, HEK293 APP cells). Format: cell-based. The settings on record: 18-20 hrs incubation, Aβ 40 in culture supernatant, read-out: BACE1 cell act. Aβ40 IC50. Here is the method:
Cellular Aβ-Lowering Assay:
The Abeta 40 AlphaLISA Assay can be used. The HEK293 APP cells were seeded in 96 well Microtiter plates in cell culture medium (Iscove's, plus 10% (v/v) fetal bovine serum, penicillin/streptomycin) to about 80% confluency and the compounds were added at a 3× concentration in ⅓ volume of culture medium (final DMSO concentration was kept at 1% v/v). After 18-20 hrs incubation at 37° C. and 5% CO2 in a humidified incubator, the culture supernatants were harvested for the determination of Aβ 40 concentrations using Perkin-Elmer Human Amyloid beta 1-40 (high specificity) Kit (Cat#AL275C).
In a Perkin-Elmer White Optiplate-384 (Cat#6007290), 2 ul culture supernatants were combined with 2 μl of a 10× AlphaLISA Anti-hAβAcceptor beads + Biotinylated Antibody Anti-Aβ 1-40 Mix (50 μg/mL/5 nM). After 1 hour room temperature incubation, 16 μl of a 1.25× preparation of Streptavidin (SA) Donor beads (25 μg/mL) were added and incubated for 30 minutes in the Dark. Light Emission at 615 nm was then recorded using EnVision-Alpha Reader. Levels of Aβ 40 in the culture supernatants were calculated as percentage of maximum signal (cells treated with 1% DMSO without inhibitor). The IC50 values were calculated using the Excel XLfit software.
In general terms: Bead proximity is the source of the signal in Alpha formats.
Regarding `CN=[S@@]1(=O)C[C@@](C)(c2cc(-c3cc(-c4ncc(OCC(F)F)cn4)no3)ccc2F)N=C(N)C1(C)C` [Example 18, (1R,3R)-3-[5-[3-[5-(2,2-difluoroethoxy)pyrimidin-2-yl]isoxazol-5-yl]-2-fluoro-phenyl]-3,6,6-trimethyl-1-methylimino-1-oxo-2H-1,4-thiazin-5-amine], the IC50 came to 0.013 µM.
For the molecule `CN=[S@@]1(=O)C[C@@](C)(c2cc(-c3cc(-c4cnc(OC)cn4)no3)ccc2F)N=C(N)C12CCCC2` [Example 27, (6R,8R)-10-amino-8-(2-fluoro-5-(3-(5-methoxypyrazin-2-yl)isoxazol-5-yl)phenyl)-8-methyl-6-(methylimino)-6-thia-9-azaspiro[4.5]dec-9-ene 6-oxide 2,2,2-trifluoroacetate], the IC50 came to 0.139 µM.
Consider `COc1cnc(-c2cc(-c3ccc(F)c([C@]4(C)C[S@](=O)(=NC5CC5)C(C)(C)C(N)=N4)c3)on2)cn1` [Example 33, (1R,3R)-5-amino-1-(cyclopropylimino)-3-(2-fluoro-5-(3-(5-methoxypyrazin-2-yl)isoxazol-5-yl)phenyl)-3,6,6-trimethyl-3,6-dihydro-2H-1,4-thiazine 1-oxide], for which the IC50 amounted to 0.092 µM.
In the case of `CN=[S@@]1(=O)C[C@@](C)(c2cc(-c3cc(-c4cnc(O)cn4)no3)ccc2F)N=C(N)C1(C)C` [Example 23, (1R,3R)-5-amino-3-(2-fluoro-5-(3-(5-hydroxypyrazin-2-yl)isoxazol-5-yl)phenyl)-3,6,6-trimethyl-1-(methylimino)-3,6-dihydro-2H-1,4-thiazine 1-oxide], the IC50 is above 1 µM.
Under `CN=[S@@]1(=O)C[C@@](CF)(c2cc(-c3cc(-c4ncc(Br)cc4C)no3)ccc2F)N=C(N)C1(C)C` [Example 15, (1R,3S)-5-amino-3-(5-(3-(5-bromo-3-methylpyridin-2-yl)isoxazol-5-yl)-2-fluorophenyl)-3-(fluoromethyl)-6,6-dimethyl-1-(methylimino)-3,6-dihydro-2H-1,4-thiazine 1-oxide 2,2,2-trifluoroacetate] stands 0.344 µM.
For `CN=[S@@]1(=O)C[C@@](CF)(c2cc(-c3cn(-c4ccc(Cl)cn4)nn3)ccc2F)N=C(N)C1(C)C` [Example 16, (1R,3S)-5-amino-3-(5-(1-(5-chloropyridin-2-yl)-1H-1,2,3-triazol-4-yl)-2-fluorophenyl)-3-(fluoromethyl)-6,6-dimethyl-1-(methylimino)-3,6-dihydro-2H-1,4-thiazine 1-oxide 2,2,2-trifluoroacetate], the IC50 turned out to be 0.156 µM.
In the case of `CN=[S@@]1(=O)C[C@@](CF)(c2cc(-c3cn(-c4ccc(C#N)cn4)nn3)ccc2F)N=C(N)C1(C)C` [Example 14, 6-(4-(3-((1R,3S)-5-amino-3-(fluoromethyl)-6,6-dimethyl-1-(methylimino)-1-oxido-3,6-dihydro-2H-1,4-thiazin-3-yl)-4-fluorophenyl)-1H-1,2,3-triazol-1-yl)nicotinonitrile 2,2,2-trifluoroacetate], the IC50 stood at 0.103 µM.
With `CN=[S@@]1(=O)C[C@@](C)(c2cc(-c3cc(-c4cnc(OCC5CC5)cn4)no3)ccc2F)N=C(N)C1(C)C` [Example 22, (1R,3R)-5-amino-3-(5-(3-(5-(cyclopropylmethoxy)pyrazin-2-yl)isoxazol-5-yl)-2-fluorophenyl)-3,6,6-trimethyl-1-(methylimino)-3,6-dihydro-2H-1,4-thiazine 1-oxide] the figure was 0.061 µM; with `CN=[S@]1(=O)C[C@@](CF)(c2cc(-c3cc(-c4ncc(OC)cn4)no3)ccc2F)N=C(N)C1(C)C` [Example 13, (1S,3S)-5-amino-3-(2-fluoro-5-(3-(5-methoxypyrimidin-2-yl)isoxazol-5-yl)phenyl)-3-(fluoromethyl)-6,6-dimethyl-1-(methylimino)-3,6-dihydro-2H-1,4-thiazine 1-oxide], 0.106 µM; with `CN=[S@]1(=O)C[C@@](C)(c2cc(-c3cc(-c4ncc(Cl)cn4)no3)ccc2F)N=C(N)C1(C)C` [Example 12, (1S,3R)-5-amino-3-(5-(3-(5-chloropyrimidin-2-yl)isoxazol-5-yl)-2-fluorophenyl)-3,6,6-trimethyl-1-(methylimino)-3,6-dihydro-2H-1,4-thiazine 1-oxide 2,2,2-trifluoroacetate], 0.019 µM.
Consider `CN=[S@@]1(=O)C[C@@](C)(c2cc(-c3cc(-c4cnc(OCC(F)(F)F)cn4)no3)ccc2F)N=C(N)C1(C)C` [Example 21, (1R,3R)-5-amino-3-(2-fluoro-5-(3-(5-(2,2,2-trifluoroethoxy)pyrazin-2-yl)isoxazol-5-yl)phenyl)-3,6,6-trimethyl-1-(methylimino)-3,6-dihydro-2H-1,4-thiazine 1-oxide 2,2,2-trifluoroacetate], for which the IC50 is 0.009 µM.
Under `CC1(C)C(N)=N[C@](C)(c2cc(-c3cc(-c4ncc(Cl)cn4)no3)ccc2F)C[S@@]1(=O)=NC1CC1` [Example 36, (1S,3R)-5-amino-3-(5-(3-(5-chloropyrimidin-2-yl)isoxazol-5-yl)-2-fluorophenyl)-1-(cyclopropylimino)-3,6,6-trimethyl-3,6-dihydro-2H-1,4-thiazine 1-oxide 2,2,2-trifluoroacetate] stands 0.007 µM; under `CN=[S@@]1(=O)C[C@@](C)(c2cc(-c3cc(-c4cnc(OCC(F)F)cn4)no3)ccc2F)N=C(N)C12CCCC2` [Example 30, (6R,8R)-10-amino-8-(5-(3-(5-(2,2-difluoroethoxy)pyrazin-2-yl)isoxazol-5-yl)-2-fluorophenyl)-8-methyl-6-(methylimino)-6-thia-9-azaspiro[4.5]dec-9-ene 6-oxide], 0.104 µM; under `CC1(C)C(N)=N[C@](C)(c2cc(-c3cc(-c4ncc(Cl)cn4)no3)ccc2F)C[S@]1(=O)=NCC(F)(F)F` [Example 40, (1R,3R)-5-amino-3-(5-(3-(5-chloropyrimidin-2-yl)isoxazol-5-yl)-2-fluorophenyl)-3,6,6-trimethyl-1-((2,2,2-trifluoroethyl)imino)-3,6-dihydro-2H-1,4-thiazine 1-oxide 2,2,2-trifluoroacetate], 0.037 µM.
